ChEMBL document CHEMBL1255515, “Design of a series of bicyclic HIV-1 integrase inhibitors. Part 2: azoles: effective metal chelators” (Bioorg Med Chem Lett, 2010)

How the values were obtained:
[1] = system: Human immunodeficiency virus 1; assay: Antiviral activity against HIV1 by cell based luciferase assay; assay type: functional, organism-based
[2] = target: Human immunodeficiency virus type 1 integrase (Human immunodeficiency virus 1, UniProt Q7ZJM1); assay: Inhibition of HIV-1 integrase-mediated 3'-processing and strand transfer activity
[3] = system: Human immunodeficiency virus 1; assay: Antiviral activity against HIV1 by cell based luciferase assay in presence of 50% serum; assay type: functional
[4] = system: Human immunodeficiency virus 1; assay: Antiviral activity against HIV1 assessed as inhibition of viral replication after 6 days by cell based p24 antigen assay; details: Human immunodeficiency virus 1, 144 h

Sequence of Human immunodeficiency virus type 1 integrase (Q7ZJM1 whole entry): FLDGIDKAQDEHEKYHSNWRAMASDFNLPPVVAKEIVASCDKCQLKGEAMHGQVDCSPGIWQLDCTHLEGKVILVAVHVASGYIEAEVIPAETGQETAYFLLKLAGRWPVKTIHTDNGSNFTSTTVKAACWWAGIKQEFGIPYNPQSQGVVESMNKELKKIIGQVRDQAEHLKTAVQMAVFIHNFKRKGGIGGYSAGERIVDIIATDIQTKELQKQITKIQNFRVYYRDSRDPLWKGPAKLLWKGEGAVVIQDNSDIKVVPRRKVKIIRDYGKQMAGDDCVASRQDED

Structure (SMILES)	EC50 [1]	IC50 [2]	EC50 [4]	fold change (FC) [3]
O=c1c(O)c(-c2noc(Cc3ccc(F)cc3)n2)nc2ccc(N3CCOCC3)cn12		0.45 µM	0.099 µM	
O=c1c(O)c(-c2nnc(Cc3ccc(F)cc3)[nH]2)nc2ccc(N3CCOCC3)cn12	0.198 µM			
O=c1c(O)c(-c2nnc(Cc3ccc(F)cc3)s2)nc2ccc(N3CCOCC3)cn12		0.225 µM	0.014 µM	
CCN(C(=O)C(=O)N(C)C)c1cc(N2CCOCC2)cn2c(=O)c(O)c(-c3ncc(Cc4ccc(F)cc4)[nH]3)nc12	0.086 µM			
O=c1c(O)c(-c2ncc(Cc3ccc(F)cc3)[nH]2)nc2c(N3CCCS3(=O)=O)cc(N3CCOCC3)cn12	> 1 µM	0.095 µM		
O=c1c(O)c(-c2ncc(Cc3ccc(F)cc3)o2)nc2c(N3CCCS3(=O)=O)cc(N3CCOCC3)cn12	> 1 µM			
O=c1c(O)c(-c2nc(Cc3ccc(F)cc3)no2)nc2ccc(N3CCOCC3)cn12	> 1 µM	> 10 µM		
O=c1c(O)c(-c2nnc(Cc3ccc(F)cc3)o2)nc2ccc(N3CCOCC3)cn12		0.31 µM	0.215 µM	
O=C1CCCN1c1cc(N2CCOCC2)cn2c(=O)c(O)c(-c3ncc(Cc4ccc(F)cc4)[nH]3)nc12	0.039 µM	0.047 µM		
O=c1c(O)c(-c2ncc(Cc3ccc(F)cc3)[nH]2)nc2ccc(N3CCOCC3)cn12	0.062 µM	0.045 µM		
O=C(NCc1ccc(F)cc1)c1nc2ccc(N3CCOCC3)cn2c(=O)c1O	0.215 µM	0.775 µM	0.028 µM	
O=C1OCCN1c1cc(N2CCOCC2)cn2c(=O)c(O)c(-c3ncc(Cc4ccc(F)cc4)[nH]3)nc12	0.064 µM	0.035 µM		

The next lines start with results.

EC50 [1]	IC50 [2]	EC50 [4]	Structure (SMILES)	fold change (FC) [3]
0.0115 µM	0.036 µM		O=c1c(O)c(-c2ncc(Cc3ccc(F)cc3)s2)nc2c(N3CCCS3(=O)=O)cc(N3CCOCC3)cn12	
0.006 µM			CC(C)N1CCN(c2cc(N3CCOCC3)cn3c(=O)c(O)c(-c4ncc(Cc5ccc(F)cc5)[nH]4)nc23)C1=O	<3
0.011 µM	0.07 µM		CN1CCN(c2cc(N3CCOCC3)cn3c(=O)c(O)c(-c4ncc(Cc5ccc(F)cc5)[nH]4)nc23)S1(=O)=O	
0.014 µM	0.042 µM	0.00435 µM	O=c1c(O)c(-c2ncc(Cc3ccc(F)cc3)s2)nc2c(Br)cc(N3CCOCC3)cn12	
0.009 µM	0.17 µM	0.0026 µM	O=c1c(O)c(-c2ncc(Cc3ccc(F)cc3)o2)nc2c(I)cc(N3CCOCC3)cn12	
0.032 µM	0.02 µM	0.0165 µM	O=c1c(O)c(-c2ncc(Cc3ccc(F)cc3)s2)nc2ccc(N3CCOCC3)cn12	
0.029 µM			O=c1c(O)c(-c2ncc(Cc3ccc(F)cc3)[nH]2)nc2c(Br)cc(N3CCOCC3)cn12	
0.0215 µM	0.059 µM	0.006 µM	O=c1c(O)c(-c2ncc(Cc3ccc(F)cc3)o2)nc2ccc(N3CCOCC3)cn12	
